Oligonucleotides are written 5' to 3', each unit as a sugar letter and its base; * is a phosphorothioate linkage, no mark a phosphodiester; rarer units and linkages stand in square brackets, end groups in braces. Plain capitals give the bases only. Oligonucleotides are given in HELM: sugar(base)linkage, 5' to 3'; d 2'-deoxyribose, r ribose, m 2'-O-methylribose, p phosphate. ss, as = sense and antisense strand; d = 2'-deoxy (DNA); r = 2'-OH (RNA)
Also: test concentration or dose not given here.

The first data set concerns the target P2RX3. The data set is described as follows: reporter assay of Huesken 2005. As to conditions: siRNA.
For “sense rGrGrCrCrGrArCrCrArGrUrArCrArArArGrCrCdTdT / antisense rGrGrCrUrUrUrGrUrArCrUrGrGrUrCrGrGrCrCdCdC”, the normalised inhibition (eCFP-eYFP dual reporter) was 68%.

With “sense rGrGrCrCrGrCrUrGrCrGrUrGrArArCrUrArCrAdTdT / antisense rUrGrUrArGrUrUrCrArCrGrCrArGrCrGrGrCrCdAdG”, the normalised inhibition (eCFP-eYFP dual reporter) came out at 72.3%.

On to “sense rGrGrCrCrUrUrUrArCrUrUrCrUrGrUrGrGrGrAdTdT / antisense rUrCrCrCrArCrArGrArArGrUrArArArGrGrCrCdGdC”, for which the normalised inhibition (eCFP-eYFP dual reporter) turned out to be 80.2%.

“sense rGrGrGrCrArUrUrArArGrArUrCrGrGrCrUrGrGdTdT / antisense rCrCrArGrCrCrGrArUrCrUrUrArArUrGrCrCrCdAdG” showed a normalised inhibition (eCFP-eYFP dual reporter) of 59.7%.

Substance “sense rGrGrGrUrArGrGrGrGrArCrGrUrGrGrUrCrArAdTdT / antisense rUrUrGrArCrCrArCrGrUrCrCrCrCrUrArCrCrCdGdC” displayed a normalised inhibition (eCFP-eYFP dual reporter) of 94.9%.

For the substance “sense rGrGrUrArCrGrGrGrArCrArCrArGrCrCrArUrUdTdT / antisense rArArUrGrGrCrUrGrUrGrUrCrCrCrGrUrArCrCdTdG”, the normalised inhibition (eCFP-eYFP dual reporter) turned out to be 61.2%.

For “sense rGrGrUrGrArArUrGrArGrArCrUrArCrGrCrUrGdTdT / antisense rCrArGrCrGrUrArGrUrCrUrCrArUrUrCrArCrCdTdC”, the normalised inhibition (eCFP-eYFP dual reporter) came out at 87.3%.

“sense rGrUrArCrCrGrCrArCrCrCrUrCrCrUrGrArArGdTdT / antisense rCrUrUrCrArGrGrArGrGrGrUrGrCrGrGrUrArCdTdC” showed a normalised inhibition (eCFP-eYFP dual reporter) of 37.1%.

As to “sense rUrArArCrCrArArGrGrUrGrArArGrGrGrCrUrCdTdT / antisense rGrArGrCrCrCrUrUrCrArCrCrUrUrGrGrUrUrAdCdC”, the normalised inhibition (eCFP-eYFP dual reporter) turned out to be 16.2%.

Consider “sense rUrArGrGrGrUrGrGrGrUrUrUrUrCrUrUrGrCrAdTdT / antisense rUrGrCrArArGrArArArArCrCrCrArCrCrCrUrAdCdA”, for which the normalised inhibition (eCFP-eYFP dual reporter) was determined as 82.2%.

Take “sense rUrCrArCrUrArUrUrUrUrCrArUrCrArArGrArAdTdT / antisense rUrUrCrUrUrGrArUrGrArArArArUrArGrUrGrAdAdG”: the normalised inhibition (eCFP-eYFP dual reporter) was found to be 79.6%.

In turn, “sense rUrCrArGrArCrArGrCrCrArGrUrGrCrGrGrGrCdTdT / antisense rGrCrCrCrGrCrArCrUrGrGrCrUrGrUrCrUrGrAdTdA” gave a normalised inhibition (eCFP-eYFP dual reporter) of 23.8%.

For “sense rUrCrCrUrCrArCrUrGrGrCrCrGrCrUrGrCrGrUdTdT / antisense rArCrGrCrArGrCrGrGrCrCrArGrUrGrArGrGrAdTdC”, the normalised inhibition (eCFP-eYFP dual reporter) is 16.4%.

Turning to “sense rUrCrCrUrGrCrUrCrArArCrUrUrCrCrUrCrArAdTdT / antisense rUrUrGrArGrGrArArGrUrUrGrArGrCrArGrGrAdTdG”, the normalised inhibition (eCFP-eYFP dual reporter) was 90.3%.

As for “sense rUrCrGrGrCrUrGrGrGrUrGrUrGrCrGrArCrUrUdTdT / antisense rArArGrUrCrGrCrArCrArCrCrCrArGrCrCrGrAdTdC”, the normalised inhibition (eCFP-eYFP dual reporter) amounted to 77.1%.

For the substance “sense rUrCrGrGrUrCrUrUrUrGrUrCrArUrCrArUrCrAdTdT / antisense rUrGrArUrGrArUrGrArCrArArArGrArCrCrGrAdGdG”, the normalised inhibition (eCFP-eYFP dual reporter) amounted to 72.8%.

Substance “sense rUrCrUrUrGrCrGrGrGrUrArGrGrGrGrArCrGrUdTdT / antisense rArCrGrUrCrCrCrCrUrArCrCrCrGrCrArArGrAdTdG” returned a normalised inhibition (eCFP-eYFP dual reporter) of 75.9%.

Turning to “sense rUrGrArCrArGrCrCrArGrGrGrArCrArUrGrArAdTdT / antisense rUrUrCrArUrGrUrCrCrCrUrGrGrCrUrGrUrCrAdGdG”, the normalised inhibition (eCFP-eYFP dual reporter) was 90.5%.

On to “sense rUrGrCrArUrCrCrCrCrArArArUrArCrUrCrCrUdTdT / antisense rArGrGrArGrUrArUrUrUrGrGrGrGrArUrGrCrAdCdT”, for which the normalised inhibition (eCFP-eYFP dual reporter) was 56.3%.

The substance “sense rUrGrCrCrGrCrUrUrCrCrArCrCrCrGrGrArCrAdTdT / antisense rUrGrUrCrCrGrGrGrUrGrGrArArGrCrGrGrCrAdGdG” returned a normalised inhibition (eCFP-eYFP dual reporter) of 93.7%.

Substance “sense rUrGrGrUrGrCrCrCrCrArCrGrGrArGrGrUrGrGdTdT / antisense rCrCrArCrCrUrCrCrGrUrGrGrGrGrCrArCrCrAdGdC” yielded a normalised inhibition (eCFP-eYFP dual reporter) of 13.5%.

The substance “sense rUrGrUrCrUrGrArUrUrArCrGrUrGrArCrGrCrCdTdT / antisense rGrGrCrGrUrCrArCrGrUrArArUrCrArGrArCrAdCdA” displayed a normalised inhibition (eCFP-eYFP dual reporter) of 43.1%.

Regarding “sense rUrUrArArGrArUrCrGrGrCrUrGrGrGrUrGrUrGdTdT / antisense rCrArCrArCrCrCrArGrCrCrGrArUrCrUrUrArAdTdG”, the normalised inhibition (eCFP-eYFP dual reporter) is 55.4%.

In the case of “sense rUrUrCrArGrCrUrUrCrUrGrArUrCrArUrCrUrCdTdT / antisense rGrArGrArUrGrArUrCrArGrArArGrCrUrGrArAdCdT”, the normalised inhibition (eCFP-eYFP dual reporter) amounted to 46.8%.

“sense rUrUrCrUrGrCrCrCrArGrArGrArGrUrGrArGrGdTdT / antisense rCrCrUrCrArCrUrCrUrCrUrGrGrGrCrArGrArAdTdC” displayed a normalised inhibition (eCFP-eYFP dual reporter) of 44.3%.

On to “sense rUrUrGrCrGrGrGrGrCrArGrGrArUrUrUrUrGrCdTdT / antisense rGrCrArArArArUrCrCrUrGrCrCrCrCrGrCrArAdAdC”, for which the normalised inhibition (eCFP-eYFP dual reporter) worked out at 33.4%.

“sense rUrUrGrUrUrArCrUrGrArArArArUrCrArGrArUdTdT / antisense rArUrCrUrGrArUrUrUrUrCrArGrUrArArCrArAdTdC” had a normalised inhibition (eCFP-eYFP dual reporter) of 54.1%.

The substance “sense rUrUrUrCrUrGrCrCrCrCrArUrCrUrUrGrCrGrGdTdT / antisense rCrCrGrCrArArGrArUrGrGrGrGrCrArGrArArAdGdG” displayed a normalised inhibition (eCFP-eYFP dual reporter) of 35.2%.

Substance “sense rUrUrUrGrCrCrArArArCrUrGrGrCrGrCrGrCrAdTdT / antisense rUrGrCrGrCrGrCrCrArGrUrUrUrGrGrCrArArAdAdT” had a normalised inhibition (eCFP-eYFP dual reporter) of 37.3%.

Another data set concerns the target UBE2K. The data set is described as follows: reporter assay of Huesken 2005. As to conditions: siRNA.
For the substance “RNA1{r(A)p.r(A)p.r(A)p.r(A)p.r(U)p.r(A)p.r(U)p.r(G)p.r(G)p.r(C)p.r(A)p.r(U)p.r(C)p.r(C)p.r(U)p.r(A)p.r(A)p.r(U)p.r(A)p.d(T)p.d(T)}|RNA2{r(U)p.r(A)p.r(U)p.r(U)p.r(A)p.r(G)p.r(G)p.r(A)p.r(U)p.r(G)p.r(C)p.r(C)p.r(A)p.r(U)p.r(A)p.r(U)p.r(U)p.r(U)p.r(U)p.d(A)p.d(G)}$$$RNA1{StrandType:ss}|RNA2{StrandType:as}$”, the normalised inhibition (eCFP-eYFP dual reporter) turned out to be 67.3%.

“RNA1{r(A)p.r(A)p.r(A)p.r(U)p.r(A)p.r(G)p.r(C)p.r(A)p.r(G)p.r(G)p.r(A)p.r(C)p.r(C)p.r(U)p.r(C)p.r(C)p.r(A)p.r(G)p.r(A)p.d(T)p.d(T)}|RNA2{r(U)p.r(C)p.r(U)p.r(G)p.r(G)p.r(A)p.r(G)p.r(G)p.r(U)p.r(C)p.r(C)p.r(U)p.r(G)p.r(C)p.r(U)p.r(A)p.r(U)p.r(U)p.r(U)p.d(C)p.d(T)}$$$RNA1{StrandType:ss}|RNA2{StrandType:as}$” gave a normalised inhibition (eCFP-eYFP dual reporter) of 65.4%.

The values above are taken from the OligoGym collection.
